Results on 17 molecules are retold here after ChEMBL document CHEMBL1136524, “Substituted 2-pyridinemethanol derivatives as potent and selective phosphodiesterase-4 inhibitors” (Bioorg Med Chem Lett, 2003).

Molecules are shown by their SMILES. pIC50: −log10 of the molar value.

For one series, the species on record is Homo sapiens. The series is described as follows: Ability to inhibit LPS-induced TNF-alpha formation in human whole blood (HWB). The class given is functional, organism-based.
In series [1] the target is T1, 3',5'-cyclic-AMP phosphodiesterase 4A (Homo sapiens, UniProt P27815). The series is described as follows: In vitro inhibitory activity against Phosphodiesterase 4A (PDE4).
T1 sequence (P27815 whole entry): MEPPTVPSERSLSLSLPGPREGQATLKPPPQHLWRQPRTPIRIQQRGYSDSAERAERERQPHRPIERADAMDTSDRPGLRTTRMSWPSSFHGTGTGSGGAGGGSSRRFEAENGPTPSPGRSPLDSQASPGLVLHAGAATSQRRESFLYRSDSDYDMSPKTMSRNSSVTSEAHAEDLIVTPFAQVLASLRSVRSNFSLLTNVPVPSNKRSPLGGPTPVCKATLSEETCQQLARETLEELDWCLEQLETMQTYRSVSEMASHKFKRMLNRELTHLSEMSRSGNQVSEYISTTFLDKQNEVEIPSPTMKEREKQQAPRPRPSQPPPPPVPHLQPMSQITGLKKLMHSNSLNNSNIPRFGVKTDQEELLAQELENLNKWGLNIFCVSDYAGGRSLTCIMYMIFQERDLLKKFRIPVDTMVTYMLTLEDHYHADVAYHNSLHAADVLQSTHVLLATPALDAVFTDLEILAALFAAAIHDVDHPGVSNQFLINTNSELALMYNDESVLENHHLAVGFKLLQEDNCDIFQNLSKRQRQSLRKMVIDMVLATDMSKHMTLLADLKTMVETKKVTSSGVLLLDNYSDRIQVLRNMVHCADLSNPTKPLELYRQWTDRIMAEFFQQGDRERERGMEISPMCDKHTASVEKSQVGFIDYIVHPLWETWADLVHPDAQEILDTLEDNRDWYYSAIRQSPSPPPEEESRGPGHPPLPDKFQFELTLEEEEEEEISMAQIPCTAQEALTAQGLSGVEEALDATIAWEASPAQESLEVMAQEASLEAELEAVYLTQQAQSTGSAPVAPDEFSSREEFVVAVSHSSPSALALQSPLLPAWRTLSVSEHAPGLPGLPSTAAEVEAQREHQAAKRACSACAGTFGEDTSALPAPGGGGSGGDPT
The target in series [2] is T1, 3',5'-cyclic-AMP phosphodiesterase 4A. Nature of the series: Inhibition of Phosphodiesterase-4A (PDE4).
Another series deals with Cavia porcellus. The series is described as follows: Inhibition of ovalbumin induced bronchoconstriction in conscious guinea pig after ip administration at 0.3 mg/kg (0.5 hr pre-treatment). The series is classed as functional. Conditions: route intraperitoneal.
Series [3] can be described thus: Oral bioavailability in squirrel monkey at a dose of 10 mg/kg. The series is classed as ADME, organism-based, Saimiri sciureus. Conditions: in vivo.
Series [4] is described as follows: Maximal plasma concentration in squirrel monkeys. The class given is ADME, organism-based.
Series [5] in a line: Half life period was determined in squirrel monkey after iv administration at a dose of 5 mg/kg. The series is classed as ADME, organism-based. Set-up: dose 5 mg/kg, route intravenous. The note with it: in vivo.
In series [6] the test system is Ovis aries. Nature of the series: Inhibition of ascaris-induced bronchoconstriction in conscious sheep at 0.5 mg/kg iv dose at early phase. The class given is functional.
The nature of series [7]: Oral bioavailability in rat. The class given is ADME, organism-based. The note with it: in vivo.
The nature of series [8]: Half life period was determined in rat after iv administration at a dose of 5 mg/kg. The note with it: in vivo. The series is classed as ADME, organism-based. Set-up: dose 5 mg/kg, route intravenous.
The subject of series [9] is Ovis aries. The series is described as follows: Inhibition of ascaris-induced bronchoconstriction in conscious sheep at 0.5 mg/kg iv dose late phase. The class given is functional.

One may read the pIC50 as the negative decadic logarithm of the IC50, by convention in mol/L. Consider `[O-][n+]1ccc(CC(c2ccc(C(O)(c3ccccc3)c3ccccc3)nc2)c2ccc(OC(F)F)c(OC(F)F)c2)cc1` (configuration not stated), for which the pIC50 in the series listed under Homo sapiens (Homo sapiens, Blood) is 6.26; in [1], 9.10.
Turning to `CCC(O)(c1ccccc1)c1ccc(C(Cc2cc[n+]([O-])cc2)c2ccc(OC(F)F)c(OC(F)F)c2)cn1` (configuration not stated), the pIC50 in the series filed under Homo sapiens (Homo sapiens, Blood) was 6.80; in [2] it was 9.00.
For `[O-][n+]1ccc(CC(c2ccc(C(O)c3ccccc3)nc2)c2ccc(OC(F)F)c(OC(F)F)c2)cc1` (configuration not stated), the pIC50 in the series filed under Homo sapiens (Homo sapiens, Blood) is 6.44; in series [2] it was 8.22.
`CC(=O)c1ccc(C(Cc2cc[n+]([O-])cc2)c2ccc(OC(F)F)c(OC(F)F)c2)cn1` (configuration not stated): the pIC50 is 5.66 in the series listed under Homo sapiens (Homo sapiens, Blood) and 6.99 in series [1].
The corresponding values for `[O-][n+]1ccc(CC(c2ccc(C(O)(c3ccccc3)C(F)(F)F)nc2)c2ccc(OC(F)F)c(OC(F)F)c2)cc1` (configuration not stated) are 6.34 and 8.62.
Consider `CC(C)(O)c1ccc(C(Cc2cc[n+]([O-])cc2)c2ccc(OC(F)F)c(OC(F)F)c2)cn1` (configuration not stated), for which the pIC50 in the series filed under Homo sapiens (Homo sapiens, Blood) is 6.05; in series [1], 7.40.
For the molecule `COc1ccc([C@H](Cc2ccncc2)c2ccccc2)cc1OC1CCCC1` [CDP840], the pIC50 in the series filed under Homo sapiens (Homo sapiens, Blood) was 4.80.
A word on the Inhibition: it is the relative decrease from the control value, in per cent. The term bioavailability denotes dose-corrected exposure relative to a reference, in per cent. Broadly, the Cmax is the peak of the concentration-time curve. The term half-life denotes the time in which the quantity being followed falls by half. Broadly, the inhibition in vivo is the change of the read-out against control, counted positive when it falls. As to `CC(O)(c1ccccc1)c1ccc(C(Cc2cc[n+]([O-])cc2)c2ccc(OC(F)F)c(OC(F)F)c2)cn1` (single isomer, unassigned; diastereomer 1), the Inhibition in the series on Cavia porcellus turned out to be 62%. Also, the results for the negative logarithm of the IC50 (pIC50) (in the series filed under Homo sapiens; in series [1]) were 6.80 and 8.70, respectively. Further, the results for the bioavailability in series [3] and in series [7] were 73% and 57%, respectively. In [4], the Cmax worked out at 2200 nM. Besides, the half-life in series [5] is 2.2 h; in [8], 1.5 h. Also, the values for the inhibition in vivo at 0.5 mg/kg in the series with Ovis aries [6] and in the series on Ovis aries [9] were 33% and 91%, respectively.
Take `[O-][n+]1ccc(CC(c2ccc(Cc3ccccc3)nc2)c2ccc(OC(F)F)c(OC(F)F)c2)cc1` (configuration not stated): the pIC50 in the series filed under Homo sapiens (Homo sapiens, Blood) is 6.11; in series [1], 8.52.
For `CC(O)(c1ccc(C(Cc2cc[n+]([O-])cc2)c2ccc(OC(F)F)c(OC(F)F)c2)cn1)c1nccs1` (configuration not stated), the pIC50 was 6.31 in the series filed under Homo sapiens (Homo sapiens, Blood) and 8.22 in series [1].
Consider `CC(O)(c1ccccc1)c1ccc(C(Cc2cc[n+]([O-])cc2)c2ccc(OC(F)F)c(OC(F)F)c2)cn1` (racemic), for which the pIC50 in the series listed under Homo sapiens was 6.46; in series [1], 9.22.
As to `CC(O)(c1ccc(C(Cc2cc[n+]([O-])cc2)c2ccc(OC(F)F)c(OC(F)F)c2)cn1)C1CCCCC1` (configuration not stated), the negative logarithm of the IC50 (pIC50) in the series filed under Homo sapiens (Homo sapiens, Blood) is 6.52; in [1], 8.92.
Consider `O=C(c1ccccc1)c1ccc(C(Cc2cc[n+]([O-])cc2)c2ccc(OC(F)F)c(OC(F)F)c2)cn1` (configuration not stated), for which the pIC50 is 6.22 in the series filed under Homo sapiens (Homo sapiens, Blood) and 7.64 in series [2].
Consider `CC(C)C(O)(c1ccccc1)c1ccc(C(Cc2cc[n+]([O-])cc2)c2ccc(OC(F)F)c(OC(F)F)c2)cn1` (configuration not stated), for which the pIC50 in the series filed under Homo sapiens (Homo sapiens, Blood) was 6.43; in [1] it was 9.10.
With `CC(O)(c1ccccc1)c1ccc(C(Cc2cc[n+]([O-])cc2)c2ccc(OC(F)F)c(OC(F)F)c2)cn1` (mixture of isomers), the pIC50 in the series listed under Homo sapiens was 5.46; in [1], 7.32.
Consider `CC(O)(c1ccccc1)c1ccc(C(Cc2cc[n+]([O-])cc2)c2ccc(OC(F)F)c(OC(F)F)c2)cn1` (single isomer, unassigned; diastereomer 2), for which, in the series on Cavia porcellus, the Inhibition is recorded as 34%. In addition, the pIC50 in the series listed under Homo sapiens is 6.96; in [1] it was 9.00.
Turning to `CCCCC(C)(O)c1ccc(C(Cc2cc[n+]([O-])cc2)c2ccc(OC(F)F)c(OC(F)F)c2)cn1` (configuration not stated), the pIC50 in the series listed under Homo sapiens (Homo sapiens, Blood) was 6.47; in [1] it was 8.22.
